In EP4755890A1, “OXO-TRICYCLIC DERIVATIVE AND PHARMACEUTICAL USE THEREOF” (Haisco Pharmaceutical Group Co., Ltd., priority 2023, dated 2025):

Columns and labels:
[1] = biological target: T1, WRN protein (AA N517-P1238, ICE, Cat. S2212T-H56HZ) (Homo sapiens, UniProt Q14191); assay: Assay for WRN helicase activity (FORKF dsDNA unwinding, fluorescence); format: biochemical; conditions: inhibition of WRN helicase activity; 10 nM WRN, 10 nM FORKF, 2 mM ATP
T1 construct: WRN protein (AA N517-P1238, ICE, Cat. S2212T-H56HZ); purchased ICE S2212T-H56HZ
T1 sequence (Q14191 517-1238, stated change not applied): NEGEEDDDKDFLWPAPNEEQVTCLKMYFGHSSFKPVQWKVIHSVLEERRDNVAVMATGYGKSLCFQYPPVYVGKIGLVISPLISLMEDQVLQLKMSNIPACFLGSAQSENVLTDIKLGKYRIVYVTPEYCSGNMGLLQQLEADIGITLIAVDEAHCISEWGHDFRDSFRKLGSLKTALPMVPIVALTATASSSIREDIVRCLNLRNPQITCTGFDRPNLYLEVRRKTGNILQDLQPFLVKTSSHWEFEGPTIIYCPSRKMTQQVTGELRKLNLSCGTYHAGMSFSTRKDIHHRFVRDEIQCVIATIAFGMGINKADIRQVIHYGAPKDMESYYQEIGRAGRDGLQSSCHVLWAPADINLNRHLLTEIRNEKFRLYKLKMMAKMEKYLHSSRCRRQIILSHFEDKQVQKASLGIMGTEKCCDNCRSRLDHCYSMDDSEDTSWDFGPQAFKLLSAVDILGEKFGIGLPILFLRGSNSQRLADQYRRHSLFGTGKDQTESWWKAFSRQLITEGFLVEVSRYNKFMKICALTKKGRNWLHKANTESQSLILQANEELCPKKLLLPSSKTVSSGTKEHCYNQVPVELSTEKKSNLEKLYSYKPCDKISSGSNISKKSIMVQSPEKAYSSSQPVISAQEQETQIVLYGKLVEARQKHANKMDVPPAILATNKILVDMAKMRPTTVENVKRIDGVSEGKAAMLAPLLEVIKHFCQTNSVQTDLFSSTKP
Protocol: The assay buffer working solution prepared with RNAase-free water was as follows: 25 mM Tris (pH 7.5), 2 mM MgCl2, 50 mM NaCl, 0.02% BSA, 0.01% Tween, and 1 mM DTT. WRN protein (AA N517-P1238, ICE, Cat. S2212T-H56HZ) was obtained through protein expression and purification in vitro. Two single-stranded DNAs were synthesized: […]-BHQ2 (quencher), and (fluorophore) TAMRA-[…]. dsDNA (FORKF) was obtained via annealing of the two single-stranded DNAs. When the WRN protein bound to FORKF, the dsDNA was unwound, exposing the fluorophore, thereby generating fluorescence. 2 µL of compounds at different concentrations and 4 µL of WRN protein were added to a 384-well black plate (Greiner, Cat#784075). The plate was pre-incubated at room temperature for 20 minutes. 2 µL each of ATP and the FORKF substrate were added. The working concentrations of the WRN protein, FORKF, and ATP were 10 nM, 10 nM, and 2 mM, respectively. The plate was incubated at room temperature for 20 minutes. After the incubation was completed, the fluorescence value was read at Ex 540 nm/Em 590 nm using a BMG microplate reader (PHERAstar FSX).
(§1) The inhibition rate was calculated according to Formula 2, where RLUsample is the readout of the compound well, RLUmax is the readout of the DMSO control well, and RLUmin is the readout of the control well without the WRN protein. Curve fitting was performed via a four-parameter logistic model using GraphPad Prism software, and the IC50 value (the concentration of the compound when the inhibition rate was 50%) was calculated. Inhibition% = (1−(RLUsample−RLUmin)/(RLUmax−RLUmin)) × 100% [formula] Table 2. Results of inhibitory activity of test compounds against WRN helicase activity

[2] = Beagle dog pharmacokinetic assay; format: in vivo, Beagle dogs; conditions: male, po; Beagle dog plasma, i.g. (3 mg/kg)
Protocol: 7.1. Experimental animals: Male Beagle dogs, about 8-13 kg, 6 Beagle dogs/compound.
7.2. Experimental method: On the day of the experiment, the Beagle dogs were randomly grouped according to their body weights. The animals were fasted with water available for 14-18 h one day before the administration, and were fed 4 h after the administration. The animals were administered according to Table 6. Table 6. Administration information
Note: Vehicle for intravenous administration: 5% DMA + 5% Solutol + 90% Saline; and vehicle for intragastric administration: 5% DMSO + 95% (20% SBE-β-CD in Saline) (DMA: dimethylacetamide; Solutol: polyethylene glycol-15-hydroxystearate; Saline: normal saline; and MC: methylcellulose)
Before and after the administration, 1 ml of blood was taken from the jugular veins or limb veins and placed in an EDTAK2 centrifuge tube. The tube was centrifuged at 5000 rpm at 4°C for 10 min, and plasma was collected. The blood collection time points for the intravenous administration group and intragastric administration group were as follows: 0, 5 min, 15 min, 30 min, 1 h, 2 h, 4 h, 6 h, 8 h, 10 h, 12 h, 24 h, and 48 h. Before analysis and detection, all samples were stored at -80°C. The samples were analyzed quantitatively by LC-MS/MS. Table 7. Pharmacokinetic parameters of test compounds in Beagle dog plasma

[3] = Mouse pharmacokinetic assay; format: in vivo, Balb/c mice; conditions: po, mouse plasma, i.g. (10 mg/kg)
Protocol: 4.1. Experimental animals: Male Balb/c mice, about 22 g, 6-8 weeks old, 6 mice/compound. The animals were purchased from CHENGDU DOSSY EXPERIMENTAL ANIMALS CO., LTD.
4.2. Experimental design: On the day of the experiment, the Balb/c mice were randomly grouped according to their body weights. The animals were fasted with water available for 12-14 h one day before the administration, and were fed 4 h after the administration. Table 4. Administration information
Vehicle for intravenous administration: 5% DMA + 5% Solutol + 90% Saline; and vehicle for intragastric administration: 5% DMSO + 95% (20% SBE-β-CD in Saline)
Before and after the administration, 0.03 ml of blood was taken from the orbit under isoflurane anesthesia and placed in an EDTAK2 centrifuge tube. The tube was centrifuged at 5000 rpm at 4°C for 10 min, and plasma was collected. The blood collection time points for the intravenous administration group and intragastric administration group were as follows: 0, 2 min, 5 min, 15 min, 30 min, 1 h, 2 h, 4 h, and 7 h. Before analysis and detection, all samples were stored at - 80°C. Table 5. Pharmacokinetic parameters of test compounds in mouse plasma

SW48 cells = assay: SW48 cell proliferation inhibition assay (CellTiter-Glo); format: cell-based; conditions: Homo sapiens, 96 h, 4 days, read-out: Inhibitory activity against SW48 cell proliferation IC50
Protocol: (§2) The culture conditions for SW48 cells were as follows: Leibovitz L15 + 10% FBS + 1% penicillin-streptomycin, and the cells were cultured in an incubator without CO2 at 37°C. On the first day, the SW48 cells in the exponential growth phase were collected and plated in 96-well cell culture plates at a density of 1000 cells/well (180 µL/well). The plates were cultured overnight in an incubator without CO2 at 37°C. T0 wells were plated simultaneously during the plating process. The next day, 20 µL of compounds at different concentrations were added to each well (nine compound concentration gradients, one DMSO well, and one blank well; each compound concentration was plated in triplicate), and the final concentration of DMSO in each well was 0.1%. The plates were cultured in an incubator without CO2 at 37°C for 4 days. On the same day of compound addition, the T0 plate was detected using the CellTiter-Glo Kit, and the detected value was recorded as RLU0. After the culture was completed, 100 µL of detection solution (Cell Viability Assay, Promega) was added to each well. The plates were incubated at room temperature for 10 minutes with slow shaking. The chemiluminescence reading was read using a BMG microplate reader (PHERAstar FSX). The results were processed according to Formula (5) to calculate the proliferation inhibition rate of compounds at each concentration. Curve fitting was performed via a four-parameter logistic model using GraphPad Prism software, and the GI50 value (the concentration of the compound when the proliferation inhibition rate was 50%) was calculated. In the formula, RLUcompound is the readout of the drug-treated group, RLUcontrol is the average value of the compound vehicle control group, and RLUBlank is the average value of the blank control group. [formula] Table 3. Results of inhibitory activity of test compounds against cell proliferation

HT-29 cells = assay: HT-29 cell proliferation inhibition assay (CellTiter-Glo); format: cell-based; conditions: Homo sapiens, 96 h, 4 days, read-out: Inhibitory activity against HT-29 cell proliferation IC50
Protocol: as §2, with “HT-29” for “SW48”, “DMEM” for “Leibovitz L15”, “with 5%” for “without”, “(4)” for “(5)”, “[formula]” for “[formula] Table 3. Results of inhibitory activity of test compounds against cell proliferation”

[4] = biological target: T2, WRN protein (AA N517-P1238, ICE) (Homo sapiens, UniProt Q14191); assay: Assay for ATPase activity of WRN helicase (ADP-Glo); format: biochemical; conditions: inhibition of ATPase activity of WRN helicase; 0.3 nM WRN, 0.2 nM DNA substrate, 10 µM ATP
T2 construct: WRN protein (AA N517-P1238, ICE); purchased ICE
T2 sequence (Q14191 517-1238): as the sequence (Q14191 517-1238, stated change not applied) above
Protocol: The assay buffer working solution was as follows: 30 mM Tris pH 7.5 + 0.02% BSA + 2 mM MgCl2 + 50 mM NaCl + 0.1% Pluronic® F127 + 1 mM DTT. WRN protein (AA N517-P1238, ICE) was obtained through protein expression and purification in vitro. A single-stranded DNA substrate ([…]) was synthesized in vitro. 1 µL each of compounds at different concentrations, the WRN protein, and the DNA substrate, together with 2 µL of ATP, were added to a 384-well white plate. The working concentrations of the WRN protein, the DNA substrate, and the ATP were 0.3 nM, 0.2 nM, and 10 µM, respectively. The plate was incubated at room temperature for 20 minutes. After the incubation was completed, the detection was performed in accordance with the instructions of the ADP-Glo Assay Kit (Promega), and the chemiluminescence value was read.
as §1, with “1,” for “2,”, “model (log(inhibitor) vs. response -- Variable slope)” for “model”, “value” for “value (the concentration of the compound when the inhibition rate was 50%)”, “1.” for “2.”, “against ATPase activity of” for “against”, “helicase” for “helicase activity”

| Structure (SMILES) | IC50 [1] | IC50 (SW48 cells) | further results |
| --- | --- | --- | --- |
| CCc1c(N2CCN(C(=O)c3ncnc(C)c3O)CC2)c(=O)n2nc(C3=CCOCC3)nc2n1CC(=O)Nc1ccc(C(F)(F)F)cc1Cl [HRO761, reference compound] |  |  | AUC(0-t) [2]: 10800 ng·h/mL; AUC(0-t) ([3]; male, Balb/c): 9210 ng·h/mL; half-life ([3]; male, Balb/c): 2.32 h; bioavailability ([3]; male, Balb/c, read-out: F (%)): 74.1% |
| Cc1ncnc(C(=O)N2CCN(c3c4n(c5nc(C6=CCOCC6)nn5c3=O)C(C(=O)Nc3ccc(C(F)(F)F)cc3Cl)CCC4)CC2)c1O (racemic) [Compound 1] | 20 to 100 nM | < 100 nM |  |
| Cc1ncnc(C(=O)N2CCN(c3c4n(c5nc(C6=CCOCC6)nn5c3=O)C(C(=O)Nc3ccc(C(F)(F)F)nc3Cl)CCC4)CC2)c1O (single isomer, unassigned) [Compound 3-B] | < 20 nM |  |  |
| Cc1cc(C(F)(F)F)ccc1NC(=O)C1CCCc2c(N3CCN(C(=O)c4ncnc(C)c4O)CC3)c(=O)n3nc(C4=CCOCC4)nc3n21 (single isomer, unassigned) [Compound 5-B] | < 20 nM |  |  |
| Cc1ncnc(C(=O)N2CC3(CCN(c4c5n(c6nc(C7=CCOCC7)nn6c4=O)C(C(=O)Nc4ccc(C(F)(F)F)cc4Cl)CCC5)CC3)C2)c1O (single isomer, unassigned) [Compound 14-B] |  |  | AUC(0-t) ([3]; in vivo): 24200 ng·h/mL; half-life ([3]; in vivo): 5.41 h |
| [2H]C1([2H])N(C(=O)c2ncnc(C)c2O)C([2H])([2H])C([2H])([2H])N(c2c3n(c4nc(C5=CCOCC5)nn4c2=O)C(C(=O)Nc2ccc(C(F)(F)F)cc2Cl)CCC3)C1([2H])[2H] (single isomer, unassigned) [Compound 7-B] | < 20 nM | < 100 nM |  |
| Cc1ncnc(C(=O)N2CCN(c3c4n(c5nc(C6=CCOCC6)nn5c3=O)C(C(=O)Nc3ccc(C(F)(F)F)cc3Cl)CCC4)[C@@H](C)C2)c1O (single isomer, unassigned) [Compound 26-A] | < 20 nM | < 100 nM | IC50 (HT-29 cells): ≥ 10000 nM |
| O=C(Nc1ccc(C(F)(F)F)cc1Cl)C1CCCc2c(N3CCN(C(=O)c4ncccc4O)CC3)c(=O)n3nc(C4=CCOCC4)nc3n21 (single isomer, unassigned) [Compound 2-B] | < 20 nM | < 100 nM | IC50 [4]: < 20 nM |

The next lines start with results.

| IC50 [1] | Structure (SMILES) | IC50 (SW48 cells) | further results |
| --- | --- | --- | --- |
| < 20 nM | Cc1ncnc(C(=O)N2CCN(c3c4n(c5nc(C6=CCOCC6)nn5c3=O)C(C(=O)Nc3ccc(C(F)(F)F)c5c3CCC5)CCC4)CC2)c1O (racemic) [Compound 28] |  |  |
| < 20 nM | Cc1ncnc(C(=O)N2CCN(c3c4n(c5nc(C6=CCOCC6)nn5c3=O)C(C(=O)Nc3ccc(C(F)(F)F)cc3Cl)CC4)CC2)c1O (single isomer, unassigned) [Compound 6-B] |  |  |
| < 20 nM | Cc1ncnc(C(=O)N2CCN(c3c4n(c5nc(C6=CCOCC6)nn5c3=O)C(C(=O)Nc3ccc(C(F)(F)F)cc3F)CCC4)CC2)c1O (single isomer, unassigned) [Compound 15-B] |  |  |
